Experimental data reported in PMC2709273 (The Journal of pharmacology and experimental therapeutics, 2008).
Entries after “also recorded” stand apart in the source; their conditions may differ. Read-outs that look alike come from different tables or passages of the source. Where a SMILES comes first, the peptide text is derived from it.

How the values were obtained:
α7 nAChRs [1] = target: T1, α7 nAChRs (Rattus norvegicus, UniProt Q05941); type: cell-based
[2] = target: homomeric α7 nicotinic acetylcholine receptor expressed in X. laevis oocytes (UniProt Q05941)
homomeric α7 nicotinic acetylcholine receptor expressed in X. laevis oocytes, sequence (Q05941 23-502): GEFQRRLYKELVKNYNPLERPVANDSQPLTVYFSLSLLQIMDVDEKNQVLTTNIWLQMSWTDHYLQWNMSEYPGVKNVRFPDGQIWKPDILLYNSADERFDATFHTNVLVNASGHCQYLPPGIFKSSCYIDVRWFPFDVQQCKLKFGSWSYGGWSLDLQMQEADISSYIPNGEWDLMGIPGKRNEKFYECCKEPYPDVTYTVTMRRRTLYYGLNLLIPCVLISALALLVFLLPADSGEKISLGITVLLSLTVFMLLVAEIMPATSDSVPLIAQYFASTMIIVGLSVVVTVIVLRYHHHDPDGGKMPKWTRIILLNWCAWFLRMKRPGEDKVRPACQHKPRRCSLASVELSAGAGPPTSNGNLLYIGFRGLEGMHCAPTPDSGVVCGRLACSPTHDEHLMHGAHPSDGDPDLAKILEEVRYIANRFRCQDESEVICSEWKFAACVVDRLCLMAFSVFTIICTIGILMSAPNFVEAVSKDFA

α7 nAChRs [3] = target: T1, α7 nAChRs; details: native and expressed receptors, cited from earlier work
α4β2 nAChRs = α4β2 nAChRs (Rattus norvegicus, UniProt P09483+P12390); type: cell-based
α4β2 nAChRs, sequence (P09483 31-630): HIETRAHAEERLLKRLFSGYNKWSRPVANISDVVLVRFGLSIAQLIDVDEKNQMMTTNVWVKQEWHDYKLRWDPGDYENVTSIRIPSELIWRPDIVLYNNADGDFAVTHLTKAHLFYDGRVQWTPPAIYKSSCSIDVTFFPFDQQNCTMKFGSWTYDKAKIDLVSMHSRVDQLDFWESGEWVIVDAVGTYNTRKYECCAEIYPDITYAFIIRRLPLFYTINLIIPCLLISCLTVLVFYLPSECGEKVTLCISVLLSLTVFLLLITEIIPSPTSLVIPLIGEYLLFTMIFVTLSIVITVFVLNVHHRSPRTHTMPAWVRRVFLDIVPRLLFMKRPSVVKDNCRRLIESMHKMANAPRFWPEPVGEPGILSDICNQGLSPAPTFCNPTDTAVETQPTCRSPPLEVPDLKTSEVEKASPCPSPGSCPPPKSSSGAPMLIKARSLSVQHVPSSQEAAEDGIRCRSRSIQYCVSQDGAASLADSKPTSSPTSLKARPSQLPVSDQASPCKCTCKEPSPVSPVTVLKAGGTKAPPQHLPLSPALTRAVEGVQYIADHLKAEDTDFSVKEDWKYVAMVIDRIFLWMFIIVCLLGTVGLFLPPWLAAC
α4β2 nAChRs, sequence (P12390 25-500): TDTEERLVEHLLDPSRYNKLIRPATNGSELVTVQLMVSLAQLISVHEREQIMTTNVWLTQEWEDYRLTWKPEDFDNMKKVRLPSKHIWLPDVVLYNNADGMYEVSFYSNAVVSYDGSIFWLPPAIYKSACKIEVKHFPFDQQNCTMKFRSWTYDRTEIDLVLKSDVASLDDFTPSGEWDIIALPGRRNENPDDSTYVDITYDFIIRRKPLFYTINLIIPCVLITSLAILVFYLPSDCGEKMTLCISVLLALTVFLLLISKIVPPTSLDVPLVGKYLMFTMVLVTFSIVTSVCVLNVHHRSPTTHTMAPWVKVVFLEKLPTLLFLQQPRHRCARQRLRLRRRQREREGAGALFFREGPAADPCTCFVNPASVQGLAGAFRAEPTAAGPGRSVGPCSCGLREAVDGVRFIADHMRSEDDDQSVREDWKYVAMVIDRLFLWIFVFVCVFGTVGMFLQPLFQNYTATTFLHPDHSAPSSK

α2β2 nAChRs = α2β2 nAChRs (Rattus norvegicus, UniProt P12389+P12390); type: cell-based
α2β2 nAChRs, sequence (P12389 28-511): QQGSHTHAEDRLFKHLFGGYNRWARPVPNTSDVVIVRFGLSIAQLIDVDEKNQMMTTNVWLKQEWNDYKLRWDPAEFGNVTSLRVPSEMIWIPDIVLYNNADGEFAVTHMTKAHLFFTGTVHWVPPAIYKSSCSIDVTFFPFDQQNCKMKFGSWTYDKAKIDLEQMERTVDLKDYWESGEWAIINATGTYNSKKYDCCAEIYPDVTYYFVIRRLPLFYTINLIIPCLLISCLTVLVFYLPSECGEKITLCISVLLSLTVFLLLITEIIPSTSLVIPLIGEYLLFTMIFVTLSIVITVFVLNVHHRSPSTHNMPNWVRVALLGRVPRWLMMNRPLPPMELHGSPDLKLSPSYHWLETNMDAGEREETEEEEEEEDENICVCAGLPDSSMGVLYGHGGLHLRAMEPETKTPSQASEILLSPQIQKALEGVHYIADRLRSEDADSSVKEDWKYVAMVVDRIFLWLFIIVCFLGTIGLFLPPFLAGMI
α2β2 nAChRs, sequence (P12390 25-500): as the sequence (P12390 25-500) above

[4] = target: native α7-containing nAChRs (rat CA1 stratum radiatum interneurons) (Rattus norvegicus, UniProt Q05941); type: cell-based
native α7-containing nAChRs (rat CA1 stratum radiatum interneurons), sequence (Q05941 23-502): as the sequence (Q05941 23-502) above

[5] = heteromeric nAChRs, X. laevis oocytes

T1 sequence (Q05941 23-502): as above

Question: With KKKKKRFDFKKDFKLDGFDFKKNK [MARCKS S/D] as the compound, how does the “inhibition of ACh-evoked α7 nAChR responses (in words)” value (from here on “inhibition … (in words)”) (α7 nAChRs [1]; X. laevis oocytes) read?
Answer: unable to inhibit ACh-mediated α7 nAChR responses; also recorded: lack of inhibition of nAChR responses

Question: For MARCKS_(154–165) peptide, which percentage block of ACh-evoked α7 nAChR current in oocytes, peptide 1 µM [2] is on record?
Answer: 12%

Question: For “β-Amyloid1–42: brain-derived peptide β-amyloid1–42”, which “effect on α7 nAChRs” value (α7 nAChRs [3]; ref Dineley et al., 2002, Dougherty et al., 2003) is on record?
Answer: agonism

Question: And the “effect on α7 nAChRs” value (α7 nAChRs [3]; ref Liu et al., 2001, Grassi et al., 2003)?
Answer: almost complete antagonism

Question: What about the “effect on α7 nAChRs” value (α7 nAChRs [3]; ref Pettit et al., 2001, Lamb et al., 2005) of the same compound?
Answer: minimal to no antagonism

Question: Which results are given for `CC(=O)N[C@@H](CCCCN)C(=O)N[C@@H](CCCCN)C(=O)N[C@@H](CCCCN)C(=O)N[C@@H](CCCCN)C(=O)N[C@@H](CCCCN)C(=O)N[C@@H](CCCNC(=N)N)C(=O)N[C@@H](Cc1ccccc1)C(=O)N[C@@H](CO)C(=O)N[C@@H](Cc1ccccc1)C(=O)N[C@@H](CCCCN)C(=O)N[C@@H](CCCCN)C(=O)N[C@@H](CO)C(=O)N[C@@H](Cc1ccccc1)C(=O)N[C@@H](CCCCN)C(=O)N[C@@H](CC(C)C)C(=O)N[C@@H](CO)C(=O)NCC(=O)N[C@@H](Cc1ccccc1)C(=O)N[C@@H](CO)C(=O)N[C@@H](Cc1ccccc1)C(=O)N[C@@H](CCCCN)C(=O)N[C@@H](CCCCN)C(=O)N[C@@H](CC(N)=O)C(=O)N[C@@H](CCCCN)C(=O)N[C@@H](CCCCN)C(N)=O` [MARCKS ED peptide] (Ac-KKKKKRFSFKKSFKLSGFSFKKNKK-NH2)?
Answer: inhibition not because of open channel block (α7 nAChRs [1]; 1 µM peptide, +30 vs -60 mV): 86%; voltage-dependent part of the inhibition (α7 nAChRs [1]; 1 µM peptide, +30 vs -60 mV): 14%; onset of inhibition (α7 nAChRs [1]; 1 µM, X. laevis oocytes): rapid; voltage dependence of inhibition (α7 nAChRs [1]; +30 and -60 mV): activity- and voltage-independent; also recorded: voltage- and activity-independent; inhibition of ACh-evoked α7 nAChR responses (in words) (α7 nAChRs [1]; X. laevis oocytes): completely inhibited; washout / recovery from inhibition (α7 nAChRs [1]; X. laevis oocytes): slow and slow recovery during washout and slow to recover with washout; activity (use) dependence of inhibition (α7 nAChRs [1]; peptide bath applied 10 min without ACh stimulation, then ACh): activity- and voltage-independent; also recorded: there was not a use-dependent component of the peptide block; also recorded: voltage- and activity-independent; inhibition at 1 µM (α7 nAChRs [1]; read-out: activity-independent inhibition of α7 nAChRs): 98 ± 2%; inhibition at 1 µM (α7 nAChRs [1]; read-out: inhibition of ACh-induced α7 nAChR peak current responses): 99 ± 0.2%; inhibition at 0.1 µM (α7 nAChRs [1]; read-out: inhibition of α7 ACh responses at 100 nM): 90 ± 2%; inhibition at 1 µM (α7 nAChRs [1]; read-out: inhibition still present after washout): 82 ± 3%; potency at α4β2 compared with α7 nAChRs (α4β2 nAChRs; IC50 comparison by F test): decreased potency; also recorded: less potent inhibition; dissociation from α4β2 nAChRs relative to α7 (α4β2 nAChRs; [5]): appears to dissociate more rapidly from heteromeric nAChRs; potency at α2β2 compared with α7 nAChRs (α2β2 nAChRs; IC50 comparison by F test): decreased potency; also recorded: less potent inhibition; dissociation from α2β2 nAChRs relative to α7 (α2β2 nAChRs; [5]): appears to dissociate more rapidly from heteromeric nAChRs; block of native α7 nAChRs in hippocampal interneurons (in words) ([4]; acute rat hippocampal slices): able to block native α7 nAChRs in a dose-dependent manner; effect on baseline current in hippocampal interneurons ([4]; bath application): no effect; onset of inhibition, hippocampal slices ([4]; bath application): slow; inhibition at 1 µM ([4]; read-out: inhibition of ACh-evoked responses in hippocampal interneurons, 1 µM): 59 ± 13%; inhibition at 3 µM ([4]; read-out: inhibition of ACh-evoked responses in hippocampal interneurons, 3 µM): 92 ± 2%; inhibition at 10 µM ([4]; read-out: inhibition of ACh-evoked responses in hippocampal interneurons, 10 µM): 100%; recovery of responses after washout, hippocampal slices ([4]; within 20 min of washout, two to three interneurons): do not recover after MARCKS ED peptide inhibition

Question: Which “inhibition … (in words)” value (α7 nAChRs [1]; X. laevis oocytes) does the source give for “MARCKS154–165: truncated form of the MARCKS ED peptide, purchased from AnaSpec (KKKRFSFKKSFK; UniProt P29966 154-165, looked up, fragment)” here?
Answer: unable to significantly inhibit α7 nAChRs

Question: For MARCKS_(159–165) peptide, which percentage block of ACh-evoked α7 nAChR current in oocytes, peptide 1 µM [2] is on record?
Answer: 5%

Question: With “MARCKS159–165: truncated form of the MARCKS ED peptide, purchased from AnaSpec (SFKKSFK; UniProt P29966 159-165, looked up, fragment)” as the compound, how does the “inhibition … (in words)” value (α7 nAChRs [1]; X. laevis oocytes) read?
Answer: unable to significantly inhibit α7 nAChRs
